How the values were obtained:
[1] = xn = mol fraction of the nth substance listed; details: Maximal bubble pressure
[2] = refractive index (Na D-line) (dimensionless); xn = mol fraction of the nth substance listed; details: 101 kPa, Liquid

C[S+](C)[O-] [dimethyl sulfoxide] + O
Details	refractive index, [2]	surface tension liquid-gas, [1] [mN/m]
298.15 K, x1 = 0.0121	1.34	71
298.15 K, x1 = 0.0202	1.344	69.7
298.15 K, x1 = 0.1044	–	61.2
298.15 K, x1 = 0.1467	1.396	–
298.15 K, x1 = 0.1979	–	56.7
298.15 K, x1 = 0.2455	1.4215	–
298.15 K, x1 = 0.2507	–	55.4
298.15 K, x1 = 0.2959	1.4305	–
298.15 K, x1 = 0.2999	–	53.3
298.15 K, x1 = 0.3187	–	53.1
298.15 K, x1 = 0.3213	1.4345	–
298.15 K, x1 = 0.3536	–	52.6
298.15 K, x1 = 0.3713	1.4415	–
298.15 K, x1 = 0.3802	–	52
298.15 K, x1 = 0.3967	1.4445	–
298.15 K, x1 = 0.4191	–	51
298.15 K, x1 = 0.4301	1.4475	–
298.15 K, x1 = 0.4523	–	50.3
298.15 K, x1 = 0.501	–	48.3
298.15 K, x1 = 0.59	–	46
298.15 K, x1 = 0.5964	1.461	–
298.15 K, x1 = 0.7027	–	44
298.15 K, x1 = 0.7685	1.47	–
298.15 K, x1 = 0.8088	–	42.6
298.15 K, x1 = 0.8945	–	42
303.15 K, x1 = 0.0121	1.339	70.1
303.15 K, x1 = 0.0202	1.3435	68.7
303.15 K, x1 = 0.1044	–	60.6
303.15 K, x1 = 0.1467	1.4005	–
303.15 K, x1 = 0.1979	–	55.8
303.15 K, x1 = 0.2455	1.42	–
303.15 K, x1 = 0.2507	–	54.5
303.15 K, x1 = 0.2959	1.4295	–
303.15 K, x1 = 0.2999	–	52.4
303.15 K, x1 = 0.3187	–	52.3
303.15 K, x1 = 0.3213	1.4335	–
303.15 K, x1 = 0.3536	–	51.7
303.15 K, x1 = 0.3713	1.4405	–
303.15 K, x1 = 0.3802	–	51.2
303.15 K, x1 = 0.3967	1.443	–
303.15 K, x1 = 0.4191	–	50
303.15 K, x1 = 0.4301	1.4455	–
303.15 K, x1 = 0.4523	–	49.9
303.15 K, x1 = 0.501	–	47.4
303.15 K, x1 = 0.59	–	45.2
303.15 K, x1 = 0.5964	1.459	–
303.15 K, x1 = 0.7027	–	43.4
303.15 K, x1 = 0.7685	1.468	–
303.15 K, x1 = 0.8088	–	42.1
303.15 K, x1 = 0.8945	–	41.4
308.15 K, x1 = 0.0121	1.3395	69.2
308.15 K, x1 = 0.0202	1.343	67.9
308.15 K, x1 = 0.1044	–	59.8
308.15 K, x1 = 0.1467	1.4	–
308.15 K, x1 = 0.1979	–	54.8
308.15 K, x1 = 0.2455	1.419	–
308.15 K, x1 = 0.2507	–	53.2
308.15 K, x1 = 0.2959	1.428	–
308.15 K, x1 = 0.2999	–	51.5
308.15 K, x1 = 0.3187	–	51.4
308.15 K, x1 = 0.3213	1.432	–
308.15 K, x1 = 0.3536	–	50.6
308.15 K, x1 = 0.3713	1.4395	–
308.15 K, x1 = 0.3802	–	50.3
308.15 K, x1 = 0.3967	1.442	–
308.15 K, x1 = 0.4191	–	49.2
308.15 K, x1 = 0.4301	1.4445	–
308.15 K, x1 = 0.4523	–	49.1
308.15 K, x1 = 0.501	–	46.7
308.15 K, x1 = 0.59	–	44.6
308.15 K, x1 = 0.5964	1.458	–
308.15 K, x1 = 0.7027	–	42.6
308.15 K, x1 = 0.7685	1.466	–
308.15 K, x1 = 0.8088	–	41.5
308.15 K, x1 = 0.8945	–	40.9
313.15 K, x1 = 0.0121	–	67.6
313.15 K, x1 = 0.0202	–	66.9
313.15 K, x1 = 0.1044	–	58.7
313.15 K, x1 = 0.1979	–	53.9
313.15 K, x1 = 0.2507	–	52.3
313.15 K, x1 = 0.2999	–	50.6
313.15 K, x1 = 0.3187	–	50.4
313.15 K, x1 = 0.3536	–	50
313.15 K, x1 = 0.3802	–	49.5
313.15 K, x1 = 0.4191	–	48.4
313.15 K, x1 = 0.4523	–	48.2
313.15 K, x1 = 0.501	–	46
313.15 K, x1 = 0.59	–	43.8
313.15 K, x1 = 0.7027	–	42.1
313.15 K, x1 = 0.8088	–	40.9
313.15 K, x1 = 0.8945	–	40.3
318.15 K, x1 = 0.0121	–	66.4
318.15 K, x1 = 0.0202	–	65.8
318.15 K, x1 = 0.1044	–	57.9
318.15 K, x1 = 0.1979	–	53
318.15 K, x1 = 0.2507	–	51.2
318.15 K, x1 = 0.3218	–	50.7
318.15 K, x1 = 0.3506	–	49.7
318.15 K, x1 = 0.3549	–	49.4
318.15 K, x1 = 0.3802	–	48.6
318.15 K, x1 = 0.4191	–	47.5
318.15 K, x1 = 0.4523	–	47.3
318.15 K, x1 = 0.501	–	45.1
318.15 K, x1 = 0.59	–	43.1
318.15 K, x1 = 0.7027	–	41.4
318.15 K, x1 = 0.8088	–	40.4
318.15 K, x1 = 0.8945	–	39.8
323.15 K, x1 = 0.0121	–	65.3
323.15 K, x1 = 0.0202	–	64.8
323.15 K, x1 = 0.1044	–	57
323.15 K, x1 = 0.1979	–	52.2
323.15 K, x1 = 0.2507	–	50.3
323.15 K, x1 = 0.3218	–	49.9
323.15 K, x1 = 0.3506	–	48.7
323.15 K, x1 = 0.3549	–	48.4
323.15 K, x1 = 0.3802	–	47.7
323.15 K, x1 = 0.4191	–	46.7
323.15 K, x1 = 0.4523	–	46.3
323.15 K, x1 = 0.501	–	44.4
323.15 K, x1 = 0.59	–	42.3
323.15 K, x1 = 0.7027	–	40.8
323.15 K, x1 = 0.8088	–	39.8
323.15 K, x1 = 0.8945	–	39.2
328.15 K, x1 = 0.0121	–	65.1
328.15 K, x1 = 0.0202	–	63.8
328.15 K, x1 = 0.1044	–	55.1
328.15 K, x1 = 0.1979	–	51.1
328.15 K, x1 = 0.2507	–	49.4
328.15 K, x1 = 0.3218	–	49
328.15 K, x1 = 0.3506	–	47.7
328.15 K, x1 = 0.3549	–	47.4
328.15 K, x1 = 0.3802	–	46.8
328.15 K, x1 = 0.4191	–	45.9
328.15 K, x1 = 0.4523	–	45.3
328.15 K, x1 = 0.501	–	43.5
328.15 K, x1 = 0.59	–	41.7
328.15 K, x1 = 0.7027	–	40.2
328.15 K, x1 = 0.8088	–	39.2
328.15 K, x1 = 0.8945	–	38.7
